Measurements as given in patent US5912183A, “Peptide inhibitors of mitogenesis and motogenesis” (Pharmacia & Upjohn S.p.A., priority 1993, dated 1999).
Residues, ends and D or L forms follow the SMILES beside them.

What was measured:
Grb2 SH2 domain = target: T1, Grb2 SH2 domain (Homo sapiens, UniProt P62993); assay: BIAcore real-time binding of Grb2 GST-SH2 fusion protein to immobilized phosphopeptide
T1 construct: corresponding to its SH2 domain (from nucleotide position 256 to nucleotide position 551); made in house; host or cells: bacteria (pGEX-2T)
T1 sequence (P62993 60-152 limits assumed): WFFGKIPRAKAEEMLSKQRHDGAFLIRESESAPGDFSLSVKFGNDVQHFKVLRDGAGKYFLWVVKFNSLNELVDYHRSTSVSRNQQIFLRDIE
Experimental: FIG. 15. The Grb2 SH2 domain binds to the Y^317 docking site of Shc. Panel A: sensorgrams obtained by injection of a range of Gst-SH2.Grb2 concentrations over the immobilised phosphopeptide derived from the Shc sequence DDPSY^317 VNVQ (SEQ. ID NO: 27). Panel B: effect of competing peptide on the dissociation rate. At the end of the Grb2 injection, buffer or […] of non-biotinylated phosphopeptide were injected. Panel C: analysis of the data shown in panel A. The figure on the left is a plot of the rate of binding versus the relative response for the six different sensorgrams. In the figure on the right, the slopes of each line are plotted against the concentration: the new slope gives the value of the association rate constant.
In vitro binding studies using GST-fusion protein. The region of the Grb2 cDNA corresponding to its SH2 domain (from nucleotide position 256 to nucleotide position 551) was isolated using polymerase chain reaction (PCR) and cloned into the BamHI-EcoRI sites of the bacterial expression plasmid pGEX-2T (GST-Grb2). Cultures of bacteria expressing GST, GST-Grb2 or GST-Shc (Segatto et al., Oncogene 2105-2112 (1993)) were grown for 3-4 hours at 37° C. in LB medium containing 1 mM IPTG. […] Protein complexes were washed 5 times in ice cold PY buffer, eluted and denatured by heating at 95° C. for 3 min in Laemmli buffer, resolved on SDS-PAGE and analyzed by immunoblot.
The basic principles of operation as well as the methodology for obtaining kinetic measurements of SH2 domain interactions using the BIAcore instrument (Pharmacia) have been previously described in detail (Panayotou et al., Mol. Cell. Biol. 13: 3567-3576 (1993), Ponzetto et al., Mol. Cell. Biol. 13: 4600-4608 (1993)). […] Association was measured over a range of protein concentrations and dissociation of bound material was allowed to occur either in buffer flow or upon injection of 20 μM competing, non-biotinylated phosphopetide. Peptide and protein concentrations were calculated by amino acid analysis on an Applied Biosystem amino acid analyzer. […]

GST-SH2 domain of Shc = target: T2, GST-SH2 domain of Shc (Homo sapiens, UniProt P29353); assay: BIAcore binding of Shc SH2 domain to immobilised phosphopeptides; conditions: biosensor; avidin-immobilized biotinylated phosphopeptide
T2 construct: using the Shc SH2 domain, expressed in bacteria as a GST-fusion protein; made in house; host or cells: bacteria
T2 sequence (P29353 488-579 limits assumed): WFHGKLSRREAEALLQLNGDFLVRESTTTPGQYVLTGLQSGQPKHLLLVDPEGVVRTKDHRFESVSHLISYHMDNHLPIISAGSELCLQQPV
Experimental: FIG. 13. […] The same concentration of Shc-SH2 was injected over two biosensor surfaces on which two phosphopeptides had been immobilised. Y1356P is derived from the sequence VNATY^1356 VNVK (SEQ. ID NO: 28) of the receptor tail; Y317P is derived from the sequence DDPSY^317 VNVQ (SEQ. ID NO: 27). Note that both peptides contain the same core (YVNV) but (SEQ. ID NO: 3) different upstream sequences. The initial rapid increase in the response is due to the "bulk effect" of the injected solution.
In vitro binding studies using GST-fusion protein. The region of the Grb2 cDNA corresponding to its SH2 domain (from nucleotide position 256 to nucleotide position 551) was isolated using polymerase chain reaction (PCR) and cloned into the BamHI-EcoRI sites of the bacterial expression plasmid pGEX-2T (GST-Grb2). Cultures of bacteria expressing GST, GST-Grb2 or GST-Shc (Segatto et al., Oncogene 2105-2112 (1993)) were grown for 3-4 hours at 37° C. in LB medium containing 1 mM IPTG. Bacteria were centrifuged, resuspended in 1/100 volume of ice-cold PY buffer, without Triton™ and lysed by sonication. After adding Triton X-100 to 1%, lysates were clarified by centrifugation. Recombinant proteins were purified onto glutathione Sepharose™ (Pharmacia) and used as such for binding assays. For each reaction, about 5 μg of GST, GST-Grb2 or GST-Shc bound to glutathione Seharose was incubated for 2 hrs. at 4° C. with […] of appropriate cell lysate made in PY buffer. Protein complexes were washed 5 times in ice cold PY buffer, eluted and denatured by heating at 95° C. for 3 min in Laemmli buffer, resolved on SDS-PAGE and analyzed by immunoblot.
The basic principles of operation as well as the methodology for obtaining kinetic measurements of SH2 domain interactions using the BIAcore instrument (Pharmacia) have been previously described in detail (Panayotou et al., Mol. Cell. Biol. 13: 3567-3576 (1993), Ponzetto et al., Mol. Cell. Biol. 13: 4600-4608 (1993)). Purified GST-SH2 domains or intact proteins were desalted in BIAcore running buffer (20 mM Hepes, pH 7.4, 150 mM NaCl, 3.4 mM EDTA, 0.005% Tween 20 and 4 mM DTT) and injected over avidin-immobilized, biotinylated phosphopeptides. The amount of phosphopeptides immobilized was normalized by measuring the binding of anti-phosphotyrosine antibodies. Association was measured over a range of protein concentrations and dissociation of bound material was allowed to occur either in buffer flow or upon injection of 20 μM competing, non-biotinylated phosphopetide. Peptide and protein concentrations were calculated by amino acid analysis on an Applied Biosystem amino acid analyzer.
The direct interaction between the SH2 domain of Shc and phosphotyrosine Y^1349 or Y^1356 was confirmed by real-time Biosensor analysis (Panayotou et al., ibid; Felder et al., Mol. Cell. Biol. 13: 1449-1455 (1993)).
The Shc sequence Y^317 VNV (SEQ. ID NO: 3) is identical to one of the two Shc binding sites present in the SF/HGF receptor (FIG. 8). […] The biosensor was used to compare binding of the Shc SH2 domain to the phosphopeptide DDPSY^317 VNVQ (SEQ. ID NO: 27), present on the Shc molecule, and to the phosphopeptide VNATY^1356 VNVK (SEQ. ID NO: 28), present on the SF/HGF receptor. […] Thus Shc-Shc association is not favoured in vivo, and the Shc phosphotyrosine residue Y^317 is available to bind other molecules, rather than to mediate the formation of concatamers.

[1] = system: binding of PI 3-kinase holoenzyme to HGF/SF receptor; assay: Competition of phosphopeptides with PI 3-kinase holoenzyme (A549 cytosolic extracts) for association with recombinant HGF/SF receptor (PI 3-kinase activity assay); set-up: species or system human; conditions: phosphopeptide 10 μM; A549 cytosolic extracts; FIG. 3
Experimental: FIG. 3. Inhibition of binding of PI 3-kinase holoenzyme to HGF/SF receptor by tyrosine-phosphorylated peptides. The phosphopeptides which efficiently out-competed p85 (FIG. 1) were assayed for the ability to interfere with binding of the PI 3-kinase holoenzyme to the HGF/SF receptor. Cytosolic extracts from three days-starved A549 cells were pre-incubated with each of the phosphopeptides (10 μM) prior to incubation with the immobilized recombinant HGF/SF receptor. The presence of receptor-associated PI 3-kinase in the immunocomplexes was determined by PI 3-kinase activity assay, as described in Materials and Methods of Example 4. The position of the phosphatidylinositol-3-phosphate (PIP) product of the PI 3-kinase reaction is indicated.
In vitro association experiments. Sf9 cells expressing the recombinant HGF/SF receptor (approximately 4×10^6 cells/point) were lysed 36 hours after infection in buffer A (10 mM Tris-HCl buffer pH 7.5, 10% glycerol, 1% Triton X-100, 150 mM NaCl, 5 mM EDTA), supplemented with 0.2 mM phenyl-methylsulfonyl fluoride, 1 μg/ml leupeptin, 0.1 TIU/ml aprotinin and 1 μg/ml pepstatin. […]
The presence of the p85 subunit of the PI 3-kinase in the receptor immunoprecipitate was determined by: i) labelling of the receptor and associated proteins with [γ-^32 P]ATP by in vitro kinase assay; ii) Western immunoblotting; iii) PI 3-kinase activity assay. […]

[2] = target: T3, binding of p85 to HGF/SF receptor (Bos taurus, UniProt P23727); assay: Competition of phosphopeptides with p85 for association with immobilized recombinant HGF/SF receptor (in vitro kinase assay readout); set-up: species or system human
T3 construct: made in house; host or cells: Sf9 insect cells (baculovirus), for both p85 and the receptor
T3 sequence (P23727 whole entry): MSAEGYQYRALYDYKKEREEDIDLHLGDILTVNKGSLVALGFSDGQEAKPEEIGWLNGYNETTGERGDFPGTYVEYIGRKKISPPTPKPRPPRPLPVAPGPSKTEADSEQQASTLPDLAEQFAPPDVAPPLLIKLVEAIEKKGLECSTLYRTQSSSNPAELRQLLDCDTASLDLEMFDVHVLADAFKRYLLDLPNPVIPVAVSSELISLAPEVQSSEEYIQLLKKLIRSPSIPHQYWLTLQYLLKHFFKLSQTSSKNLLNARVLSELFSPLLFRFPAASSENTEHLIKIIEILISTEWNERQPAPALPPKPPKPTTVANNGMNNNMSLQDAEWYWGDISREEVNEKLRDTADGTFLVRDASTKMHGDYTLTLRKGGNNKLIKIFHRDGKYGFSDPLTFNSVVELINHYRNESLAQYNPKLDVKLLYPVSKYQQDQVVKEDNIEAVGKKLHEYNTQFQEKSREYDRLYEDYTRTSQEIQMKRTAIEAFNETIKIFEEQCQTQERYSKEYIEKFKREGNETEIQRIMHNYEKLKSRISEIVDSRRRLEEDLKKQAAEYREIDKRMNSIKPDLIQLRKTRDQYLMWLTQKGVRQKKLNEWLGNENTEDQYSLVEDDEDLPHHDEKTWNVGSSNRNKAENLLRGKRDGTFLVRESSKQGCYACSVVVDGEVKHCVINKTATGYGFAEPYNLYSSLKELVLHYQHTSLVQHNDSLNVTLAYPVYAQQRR
Experimental: FIG. 1. Inhibition of binding of p85 to HGF/SF receptor by tyrosine-phosphorylated peptides. Recombinant HGF/SF receptor was purified by immunoprecipitation from baculovirus-infected Sf9 cells using a rabbit polyclonal antiserum and phosphorylated with cold ATP. Lysates of Sf9 cells expressing p85 were pre-incubated with each of the phosphopeptides (10 μM). The lysates were then allowed to associate with immobilized recombinant HGF/SF receptors. Following association the complex was washed and receptor-bound p85 was detected by an in vitro kinase assay, as described in Materials and Methods of Example 4. The phosphopeptides are identified by the number of the amino terminal tyrosine.
FIG. 2. Inhibition of binding of p85 to HGF/SF receptor with different concentrations of tyrosine-phosphorylated peptides. The phosphopeptides which efficiently out-competed p85 binding to the HGF/SF receptor (FIG. 1) were used at increasing concentrations (10 nM, 100 nM, 1 μM from left to right) to define their relative affinities for p85. Conditions of the experiment were as in FIG. 1. Phosphopeptide 1365 was used as a negative control for p85 interaction.
In vitro association experiments. Sf9 cells expressing the recombinant HGF/SF receptor (approximately 4×10^6 cells/point) were lysed 36 hours after infection in buffer A (10 mM Tris-HCl buffer pH 7.5, 10% glycerol, 1% Triton X-100, 150 mM NaCl, 5 mM EDTA), supplemented with 0.2 mM phenyl-methylsulfonyl fluoride, 1 μg/ml leupeptin, 0.1 TIU/ml aprotinin and 1 μg/ml pepstatin. Lysates were clarified at 15,000×g at 4° C. for 15 minutes and the supernatants immunoprecipitated after 2 hours incubation with anti-Met antibodies coupled to Protein A-Sepharose. Immunocomplexes were washed three times with buffer A, once with buffer B (10 mM Tris-HCl pH 7.4, 100 mM NaCl, 1 mM EDTA) and once with buffer C (25 mM 4-(2-hydroxyethyl)-1-piperazine-ethanesulfonic acid (HEPES) buffer pH 7.2, 100 mM NaCl, 5 mM MgCl2). Samples were pre-phosphorylated by incubation for 15 minutes at 25° C. in buffer C with 10 μM unlabelled ATP and then washed three times with cold buffer A supplemented with 1 mM sodium ortho-vanadate. Association between the immobilized receptor and the baculovirus-expressed p85 was carried out as previously described (Bardelli, A., et al., Oncogene 7: 1973-1978 (1992)). For the association experiments with the PI 3-kinase holoenzyme three days serum-starved A549 cells (approx. 2×10^6 cells/point) were used as a source of PI 3-kinase. A549 cells were Dounce-homogenized in MOPS buffer (20 mM 3-(N-morpholino)propanesulfonic acid) (pH 7.5), 1 mM MgCl2, 0.1 mM EDTA, 200 mM sucrose, 1 mM sodium ortho-vanadate), supplemented with 0.2 mM phenylmethylsulfonyl fluoride, 1 μg/ml leupeptin, 0.1 TIU/ml aprotinin and 1 μg/ml pepstatin. Homogenates were centrifuged at 100,000×g for 20 minutes at 4° C. When checking for the ability of phosphopeptides to block the association with the receptor, cell lysates were pre-incubated with the phosphopeptides for 1 hour at 4° C. prior to incubation with the immobilized recombinant HGF/SF receptor. Following association, immunocomplexes were washed three times with buffer A, twice with buffer D (0.5M LiCl, 100 mM Tris-HCl pH 7.6), and twice with buffer B.
The presence of the p85 subunit of the PI 3-kinase in the receptor immunoprecipitate was determined by: i) labelling of the receptor and associated proteins with [γ-^32 P]ATP by in vitro kinase assay; ii) Western immunoblotting; iii) PI 3-kinase activity assay.
In vitro kinase assay. Receptor-associated proteins were labelled in 20 μl of buffer C, in the presence of 10 μCi [γ-^32 P]ATP (specific activity 7,000 Ci/Mm; Amersham) at 25° C. for 15 minutes. The reaction was stopped by adding 1 ml of ice-cold Buffer A without protease inhibitors. Samples were washed three times with cold buffer A. The labelled immunocomplexes were eluted from Protein A-Sepharose in boiling Laemmli buffer. […]

CC(C)[C@H](NC(=O)[C@H](CC(N)=O)NC(=O)[C@@H](NC(=O)[C@H](Cc1ccc(OP(=O)(O)O)cc1)NC(=O)[C@H](CO)NC(=O)[C@@H]1CCCN1C(=O)[C@H](CC(=O)O)NC(=O)[C@@H](N)CC(=O)O)C(C)C)C(=O)N[C@@H](CCC(N)=O)C(=O)O [DDPSY^317* VNVQ, H-Asp-Asp-Pro-Ser-Tyr*-Val-Asn-Val-Gln-OH] (HELM PEPTIDE1{D.D.P.S.[O=C([C@H](Cc1ccc(OP(=O)(O)O)cc1)N[*:1])[*:2]].V.N.V.Q}$$$$V2.0)
kon (Grb2 SH2 domain; Grb2 GST-SH2 over immobilized phosphopeptide, read-out: K^ass (association rate constant)): 260000 M⁻¹ s⁻¹ | Kd (Grb2 SH2 domain; from Kdiss and K^ass, read-out: Overall affinity): 153 nM | Kdiss (dissociation rate) (Grb2 SH2 domain; measured in buffer and in the presence of competing phosphopeptide to prevent re-binding): 0.04 S^-1 | Binding of Shc SH2 domain to immobilised phosphopeptide (GST-SH2 domain of Shc): much more weakly

CC(C)[C@H](NC(=O)[C@H](CC(N)=O)NC(=O)[C@@H](NC(=O)[C@H](Cc1ccc(OP(=O)(O)O)cc1)NC(=O)[C@@H](NC(=O)[C@H](C)NC(=O)[C@H](CC(N)=O)NC(=O)[C@@H](NC(=O)[C@H](Cc1c[nH]cn1)NC(=O)[C@@H](NC(=O)[C@@H](N)Cc1ccc(OP(=O)(O)O)cc1)C(C)C)C(C)C)[C@@H](C)O)C(C)C)C(=O)N[C@@H](CCCCN)C(=O)O [H-Tyr*-Val-His-Val-Asn-Ala-Thr-Tyr*-Val-Asn-Val-Lys-OH] (HELM PEPTIDE1{[N[C@@H](Cc1ccc(OP(=O)(O)O)cc1)C(=O)[*:2]].V.H.V.N.A.T.[O=C([C@H](Cc1ccc(OP(=O)(O)O)cc1)N[*:1])[*:2]].V.N.V.K}$$$$V2.0)
Interference with binding of PI 3-kinase holoenzyme to HGF/SF receptor [1]: more efficient at displacing the PI 3-kinase holoenzyme from the HGF/SF receptor than those including just one of these residues | Inhibition of binding of p85 to HGF/SF receptor ([2]; phosphopeptide 10 μM, p85 from Sf9 lysates, FIG. 1): completely prevented p85 binding | Efficiency at outcompeting p85 (relative affinity for p85) ([2]; phosphopeptides at 10 nM, 100 nM, 1 μM, FIG. 2, rank order SEQ. ID NO: 19, then 22, 20, 18): comparable to H-Tyr*-Val-Asn-Val-Lys-Cys-Val-Ala-OH
